Measured values taken from patent publication US9750481B2, “System and method for analyzing antegrade and retrograde blood flow” (Indiana University Research and Technology Corporation, priority 2014, dated 2017).
Entries after “also recorded” stand apart in the source; their conditions may differ.

Key:
[1] = test system: SFA endothelial function; test: Superficial femoral artery flow mediated dilation (SFA FMD) during 3 hours of sitting, SIT vs VIT trial; type: in vivo, human; conditions: oral Vitamin C 1 g at 30 minutes and 500 mg at 1 hour 30 minutes, different at 1 hour (p=0.009), 2 hours (p=0.016), 3 hours (p=0.004)
Description: Two screening visits and two sitting trials in random sequence, one with uninterrupted sitting (SIT) and one with oral Vitamin C during the sitting time (VIT) were conducted. Specifically, SIT represents prolonged 3 hours of sitting. VIT represents prolonged sitting with intermittent vitamin C. Flow mediated dilation (FMD) was measured at 0, 1, 2 and 3 hours. Subjects ingested 1 g vitamin C at 30 minutes and 500 mg at 1 hour 30 minutes. Subjects arrived at the laboratory after an overnight fast of at least 6 hours between 7:00 AM and 9:00 AM. The arrival time was matched for both trials within each subject. […] Subjects were allowed to move their arms, not vigorously, for example to use a computer or do light reading during the non-testing periods of the trials. Arm movement was not quantified. The flow mediated dilation (FMD) and other vascular function parameters were measured at baseline, 1 hour, 2 hours and 3 hours into testing. […] Endothelial function was measured using SFA FMD, measured in accordance with current guidelines. […] Diameter images and Doppler measurements of blood velocity were continuously recorded for 45 seconds at baseline prior to cuff inflation. […] Ultrasound images were continuously recorded at 5 frames•s^-1 with […] […] Blood velocities were determined using the systems and methods described herein after automated selection of the blood flow envelop throughout the measurement. […]

[2] = test system: superficial femoral artery (SFA); test: Shear rates in the SFA by Doppler ultrasound during 3 hours of sitting with oral Vitamin C (VIT trial); type: in vivo, human; conditions: Mean ± SD
Description: Two screening visits and two sitting trials in random sequence, one with uninterrupted sitting (SIT) and one with oral Vitamin C during the sitting time (VIT) were conducted. Specifically, SIT represents prolonged 3 hours of sitting. VIT represents prolonged sitting with intermittent vitamin C. Flow mediated dilation (FMD) was measured at 0, 1, 2 and 3 hours. Subjects ingested 1 g vitamin C at 30 minutes and 500 mg at 1 hour 30 minutes. Subjects arrived at the laboratory after an overnight fast of at least 6 hours between 7:00 AM and 9:00 AM. The arrival time was matched for both trials within each subject. Subjects were also asked to refrain from any caffeinated drink for at least 8 hours before reporting to the lab. Upon their arrival in the lab, all subjects self-reported adhering to the fasting schedule. During both trials, the subjects remained seated for 3 hours without moving their legs or feet. Subjects were allowed to move their arms, not vigorously, for example to use a computer or do light reading during the non-testing periods of the trials. Arm movement was not quantified. The flow mediated dilation (FMD) and other vascular function parameters were measured at baseline, 1 hour, 2 hours and 3 hours into testing. The two trials were performed in random order, separated by a minimum of two and a maximum of seven days. The SIT trial was uninterrupted sitting for 3 hours, whereas in the VIT trial, subjects ingested two Vitamin C tablets; 1 g at 30 minutes and 500 mg at 1 hour 30 minutes during the sitting interval. In addition to imaging the arterial dimensions, Doppler ultrasound was used to concurrently measure SFA blood velocity. Doppler flow signals were corrected at an insonation angle of 60°, and the sample volume was placed in the middle of the artery. Diameter images and Doppler measurements of blood velocity were continuously recorded for 45 seconds at baseline prior to cuff inflation. The automatic blood pressure cuff was then rapidly inflated to 250 mmHg and maintained for 5 minutes until cuff deflation. Diameter and blood velocity recordings resumed prior to cuff deflation and continued for 5 minutes after deflation. Ultrasound images were continuously recorded at 5 frames•s^-1 with […] (TechSmith, Okemos, Mich., USA), and stored as .avi files. This procedure was repeated hourly across the sitting intervals. Off-line analysis of diameters was performed using automated edge-detection software (Brachial Analyzer, Medical Imaging Applications LLC, Coralville, IA, USA). This software allows the technician to determine a region of interest where the near and far vessel walls are most clear. The vessel wall borders are then detected using an optimal graph search-based segmentation that uses a combination of pixel density and image gradient as an objective function. All analyzed images were reviewed by the technician and edited when needed to ensure that diameter measurements were always determined from the intima-lumen interface at the near and far vessel wall. Blood velocities were determined using the systems and methods described herein after automated selection of the blood flow envelop throughout the measurement. The velocity-time integral was used to calculate the mean blood velocity for each cardiac cycle. Diameters and blood velocities were not ECG-gated. The peak dilation after cuff deflation was determined using the highest 3-s moving average and was presented as a percentage change from baseline diameter (FMD %). SFA shear rate was used as an estimate of arterial shear stress and was calculated for each FMD % at baseline and during the post occlusion period using the following formula: 4•Vm•D-1 where Vm is mean blood velocity (cm• s-1) and D is mean arterial diameter (cm). All measurements and analysis were performed by a single researcher (ST) who was blinded to the participant identity and treatment condition for each image file.

[3] = 1 hr, oral Vitamin C 1 g at 30 minutes
[4] = 2 hr, oral Vitamin C 1 g at 30 minutes and 500 mg at 1 hour 30 minutes
[5] = 3 hr, oral Vitamin C 1 g at 30 minutes and 500 mg at 1 hour 30 minutes
[6] = Baseline (0 hr), before Vitamin C ingestion, male subjects, sitting

O=C1O[C@H]([C@@H](O)CO)C(O)=C1O [Vitamin C]
Effect on decline of SFA FMD % during sitting [1]: prevented the decline in SFA FMD; also recorded: prevented the decline in endothelial function | Effect on decline of SFA FMD % during sitting ([1]; listed as VIT): preventing the decline of FMD | Antegrade shear rate in the SFA [2, 3]: 8.58 ± 6.91 s⁻¹ | Mean shear rate in the SFA [2, 3]: 4.44 ± 4.23 s⁻¹ | Antegrade shear rate in the SFA [2, 4]: 6.56 ± 3.08 s⁻¹ | Mean shear rate in the SFA [2, 4]: 2.99 ± 2.6 s⁻¹ | Antegrade shear rate in the SFA [2, 5]: 6.22 ± 2.39 s⁻¹ | Mean shear rate in the SFA [2, 5]: 3.17 ± 2.14 s⁻¹ | Antegrade shear rate in the SFA [2, 6]: 7.03 ± 3.5 s⁻¹ | Mean shear rate in the SFA [2, 6]: 5.17 ± 7.54 s⁻¹
